Reference: US7892755B2, “Screening method” (Takeda Pharmaceutical Company Limited, priority 2004, dated 2011)

What was measured:
human TGR23 = target: T1, human TGR23 (Homo sapiens, UniProt Q6W5P4); test: MAPK phosphorylation in control cells (human TGR23-expressed CHO cells); format: cell-based
T1 construct: expressed in transfected cells; host or cells: CHO cells
T1 sequence (Q6W5P4 1-371): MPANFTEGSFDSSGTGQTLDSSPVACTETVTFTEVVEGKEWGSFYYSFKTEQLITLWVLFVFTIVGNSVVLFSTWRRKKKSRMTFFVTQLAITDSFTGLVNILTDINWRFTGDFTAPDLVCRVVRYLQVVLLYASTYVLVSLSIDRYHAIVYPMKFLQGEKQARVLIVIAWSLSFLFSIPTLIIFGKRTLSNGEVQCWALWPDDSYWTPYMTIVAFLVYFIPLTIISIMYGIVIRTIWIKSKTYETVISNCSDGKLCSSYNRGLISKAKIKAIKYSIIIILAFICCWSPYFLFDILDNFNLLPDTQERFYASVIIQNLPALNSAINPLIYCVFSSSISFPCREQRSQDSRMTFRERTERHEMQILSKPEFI

GPR35 = GPR35 (Homo sapiens, UniProt Q9HC97, S294R); test: MAPK phosphorylation (western blot, phospho-p44/42 MAP kinase) in human GPR35-expressed CHO cells; format: cell-based; parameters: The resulting fragment (ca. 1 kb) was introduced into vector pAKKO-111; expressed in transfected cells; conditions: stimulation with 1-5 μM, 5 minutes
Procedure: The human GPR35-expressed CHO cells prepared in REFERENCE EXAMPLE 1 were incubated for 48 hours in a 12-well plate at 5×10^4 cells/well. MEMα (containing no nucleic acid) supplemented with 10% dialyzed FBS was used as a medium. After the medium was removed by suction, the cells were washed with 1 ml (×2) of serum-free medium and 500 μl of the serum-free medium was added thereto, followed by incubation at 37° C. for 16 hours. DNQX or NBQX was added to the cells at its optimum concentration, followed by incubation at 37° C. for 5 minutes. Immediately after the medium was removed by suction, 50 μl of Blue Loading Buffer (BioLabs) was added, the cells were lysed and taken up by pipetting. The cell lysate was destructed using a sonicator (Sono Cleaner; KAIJO DENKI) and then heat-treated at 95° C. for 5 minutes. Centrifugation (15,000 rpm, 4° C., 5 minutes) was made and the supernatant was used as a final sample.
After 10 μl of the sample was electrophoresed on 10% SDS-PAGE, the sample was transferred to a PVDF membrane by western blotting. The membrane was immersed in Block Ace (manufactured by Dainippon Pharmaceutical Co., Ltd.) and then shaken for an hour at room temperature. […] The membrane was applied to a fluorescence detector (LAS-1000; FUJI FILM) in accordance with the protocol of ECLplus Western Blotting System (Amersham Biosciences). […]

GPR35, sequence (Q9HC97 whole entry S294R, the tested form may be a part): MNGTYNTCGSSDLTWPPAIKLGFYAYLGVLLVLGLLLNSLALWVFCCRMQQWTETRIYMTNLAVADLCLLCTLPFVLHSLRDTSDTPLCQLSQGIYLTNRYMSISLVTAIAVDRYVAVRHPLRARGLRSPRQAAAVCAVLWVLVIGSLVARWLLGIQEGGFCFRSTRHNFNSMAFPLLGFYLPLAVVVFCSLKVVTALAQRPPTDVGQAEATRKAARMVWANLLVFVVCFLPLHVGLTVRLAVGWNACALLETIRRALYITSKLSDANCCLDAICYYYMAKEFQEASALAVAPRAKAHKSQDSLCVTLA

| SMILES | level of phosphorylated MAP-kinase in control cells (human TGR23) | level of phosphorylated MAP-kinase (GPR35) |
| --- | --- | --- |
| O=C1N=c2cc([N+](=O)[O-])c([N+](=O)[O-])cc2=NC1=O [DNQX, 6,7-dinitroquinoxaline-2,3-dione] | any enhanced level of phosphorylation was not observed | enhanced |
| NS(=O)(=O)c1cccc2c3c(cc([N+](=O)[O-])c12)=NC(=O)C(=O)N=3 [NBQX, 6-nitro-7-sulfamoylbenzo[f]quinoxaline-2,3-dione] | any enhanced level of phosphorylation was not observed | enhanced |
